Experiments:
[1] = test system: Strep. uberis SPU1; test: MIC against Veterinary Bacteria, in vitro agar dilution; settings: […], 10^4 organisms, 18 hours at 37°C
Description: (§1) The activity of the compounds of the Examples against various veterinarily important bacteria, was assayed in vitro using two-fold serial dilutions in Diagnostic Sensitivity Test Agar inoculated with 10^4 organisms.

[2] = test system: E. coli NCTC 10418; test: as above; settings: […], 10^4 organisms, 18 hours at 37°C
Description: as §1

[3] = test system: M. suipneumoniae HK(2); test: MIC against Mycoplasma, in vitro agar dilution; type: cell-based; settings: Friis broth solidified with 0.9% agarose, 10^3 to 10^5 C.F.U., 6 days at 37°C
[4] = test system: S. dublin S7; test: MIC against Veterinary Bacteria, in vitro agar dilution; settings: […], 10^4 organisms, 18 hours at 37°C
Description: as §1

[5] = test system: Strep. suis (group D) SPS11; test: as above; settings: […], 10^4 organisms, 18 hours at 37°C
Description: as §1

[6] = test system: Past. multocida PA1; test: as above; settings: […], 10^4 organisms, 18 hours at 37°C
Description: as §1

[7] = test system: M. hyorhinis ATCC 23234; test: MIC against Mycoplasma, in vitro agar dilution; type: cell-based; settings: Friis broth solidified with 0.9% agarose, 10^3 to 10^5 C.F.U., 6 days at 37°C
[8] = test system: Past. haemolytica PA5; test: MIC against Veterinary Bacteria, in vitro agar dilution; settings: […], 10^4 organisms, 18 hours at 37°C
Description: as §1

[9] = test system: M. suipneumoniae PW/C/210; test: MIC against Mycoplasma, in vitro agar dilution; type: cell-based; settings: Friis broth solidified with 0.9% agarose, 10^3 to 10^5 C.F.U., 6 days at 37°C
[10] = test system: Staph. aureus 152 (pen. sens); test: MIC against Veterinary Bacteria, in vitro agar dilution; settings: […], 10^4 organisms, 18 hours at 37°C
Description: as §1

[11] = test system: M. hyorhinis ATCC 25021; test: MIC against Mycoplasma, in vitro agar dilution; type: cell-based; settings: Friis broth solidified with 0.9% agarose, 10^3 to 10^5 C.F.U., 6 days at 37°C
[12] = test system: Staph. aureus B4 (pen. resistant); test: MIC against Veterinary Bacteria, in vitro agar dilution; settings: […], 10^4 organisms, 18 hours at 37°C
Description: as §1

[13] = test system: Corynebacterium pyogenes CY1; test: as above; settings: 10^4 organisms, 18 hours at 37°C
Description: as §1

[14] = test system: M. hyosynoviae ATCC 25591; test: MIC against Mycoplasma, in vitro agar dilution; type: cell-based; settings: Friis broth solidified with 0.9% agarose, 10^3 to 10^5 C.F.U., 6 days at 37°C
[15] = test system: M. suipneumoniae TAM 6N; test: MIC against Mycoplasma, in vitro agar dilution; type: cell-based; settings: Friis broth solidified with 0.9% agarose, 10^3 to 10^5 C.F.U., 6 days at 37°C
[16] = test system: Past. multocida PA2; test: MIC against Veterinary Bacteria, in vitro agar dilution; settings: […], 10^4 organisms, 18 hours at 37°C
Description: as §1

[17] = test system: Bord. bronchiseptica B09; test: as above; settings: […], 10^4 organisms, 18 hours at 37°C
Description: as §1

[18] = test system: Strep. dysgalactiae SPD1; test: as above; settings: […], 10^4 organisms, 18 hours at 37°C
Description: as §1

[19] = test system: M. suipneumoniae LABER; test: MIC against Mycoplasma, in vitro agar dilution; type: cell-based; settings: Friis broth solidified with 0.9% agarose, 10^3 to 10^5 C.F.U., 6 days at 37°C
[20] = test system: Staph. aureus Oxford; test: MIC against Veterinary Bacteria, in vitro agar dilution; settings: […], 10^4 organisms, 18 hours at 37°C
Description: as §1

[21] = test system: M. suipneumoniae NCTC 10110; test: MIC against Mycoplasma, in vitro agar dilution; type: cell-based; settings: Friis broth solidified with 0.9% agarose, 10^3 to 10^5 C.F.U., 6 days at 37°C
[22] = test system: E. coli E1; test: MIC against Veterinary Bacteria, in vitro agar dilution; settings: […], 10^4 organisms, 18 hours at 37°C
Description: as §1

[23] = test system: S. typhimurium S18; test: as above; settings: […], 10^4 organisms, 18 hours at 37°C
Description: as §1

[24] = test system: M. dispar NCTC 10125; test: MIC against Mycoplasma, in vitro agar dilution; type: cell-based; settings: Friis broth solidified with 0.9% agarose, 10^3 to 10^5 C.F.U., 6 days at 37°C
[25] = test system: Bord. bronchiseptica B08; test: MIC against Veterinary Bacteria, in vitro agar dilution; settings: […], 10^4 organisms, 18 hours at 37°C
Description: as §1

[26] = test system: M. suipneumoniae MS 16; test: MIC against Mycoplasma, in vitro agar dilution; type: cell-based; settings: Friis broth solidified with 0.9% agarose, 10^3 to 10^5 C.F.U., 6 days at 37°C
[27] = test system: M. bovis NCTC 10131; test: microbe, parasite or virus in culture; type: cell-based; settings: Friis broth solidified with 0.9% agarose, 10^3 to 10^5 C.F.U., 6 days at 37°C
[28] = test system: M. suipneumoniae JF 435; test: MIC against Mycoplasma, in vitro agar dilution; type: cell-based; settings: Friis broth solidified with 0.9% agarose, 10^3 to 10^5 C.F.U., 6 days at 37°C
[29] = test system: M. suipneumoniae UCD 1; test: MIC against Mycoplasma, in vitro agar dilution; type: cell-based; settings: Friis broth solidified with 0.9% agarose, 10^3 to 10^5 C.F.U., 6 days at 37°C
[30] = test system: Erysipelothrix rhusiopathiae NCTC 8163; test: MIC against Veterinary Bacteria, in vitro agar dilution; settings: […], 10^4 organisms, 18 hours at 37°C
Description: as §1

[31] = test system: M. bovigenitalium ATCC 14173; test: MIC against Mycoplasma, in vitro agar dilution; type: cell-based; settings: Friis broth solidified with 0.9% agarose, 10^3 to 10^5 C.F.U., 6 days at 37°C
[32] = test system: M. suipneumoniae ATCC 25095; test: MIC against Mycoplasma, in vitro agar dilution; type: cell-based; settings: Friis broth solidified with 0.9% agarose, 10^3 to 10^5 C.F.U., 6 days at 37°C
[33] = test system: M. gallisepticum S6; test: MIC against Mycoplasma, in vitro agar dilution; type: cell-based; settings: Friis broth solidified with 0.9% agarose, 10^3 to 10^5 C.F.U., 6 days at 37°C
[34] = test system: M. suipneumoniae J2206/183^b; test: MIC against Mycoplasma, in vitro agar dilution; type: cell-based; settings: Friis broth solidified with 0.9% agarose, 10^3 to 10^5 C.F.U., 6 days at 37°C
[35] = test system: M. suipneumoniae NB12; test: MIC against Mycoplasma, in vitro agar dilution; type: cell-based; settings: Friis broth solidified with 0.9% agarose, 10^3 to 10^5 C.F.U., 6 days at 37°C
[36] = test system: M. suipneumoniae Str. 11; test: MIC against Mycoplasma, in vitro agar dilution; type: cell-based; settings: Friis broth solidified with 0.9% agarose, 10^3 to 10^5 C.F.U., 6 days at 37°C
[37] = test system: M. pneumoniae ATCC 15492; test: MIC against Mycoplasma, in vitro agar dilution; type: cell-based; settings: Friis broth solidified with 0.9% agarose, 10^3 to 10^5 C.F.U., 6 days at 37°C

Methyl 9-[4-(5S-(2S,3S-epoxy-5S-hydroxy-4S-methylhexyl-3R,4R-dihydroxytetrahydropyran-2S-yl)-2,3-dimethylbut-2(E)-enoyloxy]nonanoate [Example 6]
MIC's against Strep. uberis SPU1 [1]: 0.312 µg/mL
MIC's against E. coli NCTC 10418 [2]: >80 µg/mL
MIC's against M. suipneumoniae HK(2) [3]: 10.0 µg/mL
MIC's against S. dublin S7 [4]: >80 µg/mL
MIC's against Strep. suis (group D) SPS11 [5]: 10 µg/mL
MIC's against Past. multocida PA1 [6]: 5.0 µg/mL
MIC's against M. hyorhinis ATCC 23234 [7]: 1.0 µg/mL
MIC's against Past. haemolytica PA5 [8]: 80 µg/mL
MIC's against M. suipneumoniae PW/C/210 [9]: 2.5 µg/mL
MIC's against Staph. aureus 152 (pen. sens) [10]: 2.5 µg/mL
MIC's against M. hyorhinis ATCC 25021 [11]: 1.0 µg/mL
MIC's against Staph. aureus B4 (pen. resistant) [12]: 1.25 µg/mL
MIC's against Corynebacterium pyogenes CY1 [13]: >80 µg/mL
MIC's against M. hyosynoviae ATCC 25591 [14]: 1.0 µg/mL
MIC's against M. suipneumoniae TAM 6N [15]: 10.0 µg/mL
MIC's against Past. multocida PA2 [16]: 5.0 µg/mL
MIC's against Bord. bronchiseptica B09 [17]: 5.0 µg/mL
MIC's against Strep. dysgalactiae SPD1 [18]: 0.625 µg/mL
MIC's against M. suipneumoniae LABER [19]: 2.5 µg/mL
MIC's against Staph. aureus Oxford [20]: 0.625 µg/mL
MIC's against M. suipneumoniae NCTC 10110 [21]: 10.0 µg/mL
MIC's against E. coli E1 [22]: >80 µg/mL
MIC's against S. typhimurium S18 [23]: >80 µg/mL
MIC's against M. dispar NCTC 10125 [24]: 2.5 µg/mL
MIC's against Bord. bronchiseptica B08 [25]: 40 µg/mL
MIC's against M. suipneumoniae MS 16 [26]: 2.5 µg/mL
MIC's against M. bovis NCTC 10131 [27]: 0.1 µg/mL
MIC's against M. suipneumoniae JF 435 [28]: 5.0 µg/mL
MIC's against M. suipneumoniae UCD 1 [29]: 10.0 µg/mL
MIC's against Erysipelothrix rhusiopathiae NCTC 8163 [30]: >80 µg/mL
MIC's against M. bovigenitalium ATCC 14173 [31]: 0.25 µg/mL
MIC's against M. suipneumoniae ATCC 25095 [32]: 2.5 µg/mL
MIC's against M. gallisepticum S6 [33]: >10.0 µg/mL
MIC's against M. suipneumoniae J2206/183^b [34]: 10.0 µg/mL
MIC's against M. suipneumoniae NB12 [35]: 2.5 µg/mL
MIC's against M. suipneumoniae Str. 11 [36]: 2.5 µg/mL
MIC's against M. pneumoniae ATCC 15492 [37]: 10.0 µg/mL
